According to publication PMC7156458, “Synthetic biology based construction of biological activity-related library of fungal decalin-containing diterpenoid pyrones” (Nature Communications, 2020):

Biological target: Aβ42 (Homo sapiens, UniProt P05067)
Assay: Th-T (thioflavin-T) assay of Aβ42 aggregation
Type: biochemical
Conditions: for Th-T fluorescence of Aβ42 with compound, mean of three wells (Fig. 7a source data): concentration 50, unit not given

Chain of Aβ42 (P05067 672-713): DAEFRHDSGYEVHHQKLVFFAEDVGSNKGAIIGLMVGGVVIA

C=C1CCC2C(C)(CCC=C(C)C)C(O)CCC2(C)C1Cc1c(OC)oc(CO)c(C(=O)OC)c1=O (stereo not drawn) [Compound 13]
Th-T fluorescence of Aβ42 with compound, mean of three wells (Fig. 7a source data) (time-course reading M143): 0.478
Th-T fluorescence of Aβ42 with compound, mean of three wells (Fig. 7a source data) (time-course reading M144): 0.478
Th-T fluorescence of Aβ42 with compound, mean of three wells (Fig. 7a source data) (time-course reading M145): 0.4736
Th-T fluorescence of Aβ42 (sheet Fig. 7a), mean of three wells (head suffix _10 (concentration 10), reading M63): 1.556
Th-T fluorescence of Aβ42 (sheet Fig. 7a), mean of three wells (head suffix _10 (concentration 10), reading M64): 1.557
Th-T fluorescence of Aβ42 (sheet Fig. 7a), mean of three wells (head suffix _10 (concentration 10), reading M65): 1.551
Th-T fluorescence of Aβ42 (sheet Fig. 7a), mean of three wells (head suffix _10 (concentration 10), reading M66): 1.553
Th-T fluorescence of Aβ42 (sheet Fig. 7a), mean of three wells (head suffix _10 (concentration 10), reading M67): 1.558
Th-T fluorescence of Aβ42 (sheet Fig. 7a), mean of three wells (head suffix _10 (concentration 10), reading M68): 1.564
Th-T fluorescence of Aβ42 (sheet Fig. 7a), mean of three wells (head suffix _10 (concentration 10), reading M69): 1.56
Th-T fluorescence of Aβ42 (sheet Fig. 7a), mean of three wells (head suffix _10 (concentration 10), reading M70): 1.554
Th-T fluorescence of Aβ42 (sheet Fig. 7a), mean of three wells (head suffix _10 (concentration 10), reading M71): 1.549
Th-T fluorescence of Aβ42 (sheet Fig. 7a), mean of three wells (head suffix _10 (concentration 10), reading M72): 1.561
Th-T fluorescence of Aβ42 (sheet Fig. 7a), mean of three wells (head suffix _10 (concentration 10), reading M73): 1.566
Th-T fluorescence of Aβ42 (sheet Fig. 7a), mean of three wells (head suffix _10 (concentration 10), reading M74): 1.559
Th-T fluorescence of Aβ42 (sheet Fig. 7a), mean of three wells (head suffix _10 (concentration 10), reading M75): 1.561
Th-T fluorescence of Aβ42 (sheet Fig. 7a), mean of three wells (head suffix _10 (concentration 10), reading M76): 1.555
Th-T fluorescence of Aβ42 (sheet Fig. 7a), mean of three wells (head suffix _10 (concentration 10), reading M77): 1.558
Th-T fluorescence of Aβ42 (sheet Fig. 7a), mean of three wells (head suffix _10 (concentration 10), reading M78): 1.561
Th-T fluorescence of Aβ42 (sheet Fig. 7a), mean of three wells (head suffix _10 (concentration 10), reading M79): 1.5579
Th-T fluorescence of Aβ42 (sheet Fig. 7a), mean of three wells (head suffix _10 (concentration 10), reading M80): 1.555
Th-T fluorescence of Aβ42 (sheet Fig. 7a), mean of three wells (head suffix _10 (concentration 10), reading M81): 1.559
Th-T fluorescence of Aβ42 (sheet Fig. 7a), mean of three wells (head suffix _10 (concentration 10), reading M82): 1.556
Th-T fluorescence of Aβ42 (sheet Fig. 7a), mean of three wells (head suffix _10 (concentration 10), reading M83): 1.5605
Th-T fluorescence of Aβ42 (sheet Fig. 7a), mean of three wells (head suffix _10 (concentration 10), reading M84): 1.551
Th-T fluorescence of Aβ42 (sheet Fig. 7a), mean of three wells (head suffix _20 (concentration 20), reading M63): 1.031
Th-T fluorescence of Aβ42 (sheet Fig. 7a), mean of three wells (head suffix _20 (concentration 20), reading M64): 1.035
Th-T fluorescence of Aβ42 (sheet Fig. 7a), mean of three wells (head suffix _20 (concentration 20), reading M65): 1.042
Th-T fluorescence of Aβ42 (sheet Fig. 7a), mean of three wells (head suffix _20 (concentration 20), reading M66): 1.05
Th-T fluorescence of Aβ42 (sheet Fig. 7a), mean of three wells (head suffix _20 (concentration 20), reading M67): 1.057
Th-T fluorescence of Aβ42 (sheet Fig. 7a), mean of three wells (head suffix _20 (concentration 20), reading M68): 1.061
Th-T fluorescence of Aβ42 (sheet Fig. 7a), mean of three wells (head suffix _20 (concentration 20), reading M69): 1.053
Th-T fluorescence of Aβ42 (sheet Fig. 7a), mean of three wells (head suffix _20 (concentration 20), reading M70): 1.058
Th-T fluorescence of Aβ42 (sheet Fig. 7a), mean of three wells (head suffix _20 (concentration 20), reading M71): 1.058
Th-T fluorescence of Aβ42 (sheet Fig. 7a), mean of three wells (head suffix _20 (concentration 20), reading M72): 1.061
Th-T fluorescence of Aβ42 (sheet Fig. 7a), mean of three wells (head suffix _20 (concentration 20), reading M73): 1.063
Th-T fluorescence of Aβ42 (sheet Fig. 7a), mean of three wells (head suffix _20 (concentration 20), reading M74): 1.057
Th-T fluorescence of Aβ42 (sheet Fig. 7a), mean of three wells (head suffix _20 (concentration 20), reading M75): 1.056
Th-T fluorescence of Aβ42 (sheet Fig. 7a), mean of three wells (head suffix _20 (concentration 20), reading M76): 1.058
Th-T fluorescence of Aβ42 (sheet Fig. 7a), mean of three wells (head suffix _20 (concentration 20), reading M77): 1.059
Th-T fluorescence of Aβ42 (sheet Fig. 7a), mean of three wells (head suffix _20 (concentration 20), reading M78): 1.0603
Th-T fluorescence of Aβ42 (sheet Fig. 7a), mean of three wells (head suffix _20 (concentration 20), reading M79): 1.056
Th-T fluorescence of Aβ42 (sheet Fig. 7a), mean of three wells (head suffix _20 (concentration 20), reading M80): 1.0496
Th-T fluorescence of Aβ42 (sheet Fig. 7a), mean of three wells (head suffix _20 (concentration 20), reading M81): 1.051
Th-T fluorescence of Aβ42 (sheet Fig. 7a), mean of three wells (head suffix _20 (concentration 20), reading M82): 1.061
Th-T fluorescence of Aβ42 (sheet Fig. 7a), mean of three wells (head suffix _20 (concentration 20), reading M83): 1.058
Th-T fluorescence of Aβ42 (sheet Fig. 7a), mean of three wells (head suffix _20 (concentration 20), reading M84): 1.053
Th-T fluorescence of Aβ42 (sheet Fig. 7a), mean of three wells (head suffix _50 (concentration 50), reading M63): 0.4695
Th-T fluorescence of Aβ42 (sheet Fig. 7a), mean of three wells (head suffix _50 (concentration 50), reading M64): 0.467
Th-T fluorescence of Aβ42 (sheet Fig. 7a), mean of three wells (head suffix _50 (concentration 50), reading M65): 0.4693
Th-T fluorescence of Aβ42 (sheet Fig. 7a), mean of three wells (head suffix _50 (concentration 50), reading M66): 0.4724
Th-T fluorescence of Aβ42 (sheet Fig. 7a), mean of three wells (head suffix _50 (concentration 50), reading M67): 0.4748
Th-T fluorescence of Aβ42 (sheet Fig. 7a), mean of three wells (head suffix _50 (concentration 50), reading M68): 0.4706
Th-T fluorescence of Aβ42 (sheet Fig. 7a), mean of three wells (head suffix _50 (concentration 50), reading M69): 0.4713
Th-T fluorescence of Aβ42 (sheet Fig. 7a), mean of three wells (head suffix _50 (concentration 50), reading M70): 0.4681
Th-T fluorescence of Aβ42 (sheet Fig. 7a), mean of three wells (head suffix _50 (concentration 50), reading M71): 0.4721
Th-T fluorescence of Aβ42 (sheet Fig. 7a), mean of three wells (head suffix _50 (concentration 50), reading M72): 0.4741
